Results reported in patent US10966979B2 (Sandoz AG, priority 2017, dated 2021).

Legend:
[1] = Accelerated stress test at 40° C./75% RH (physical stability by powder X-ray diffraction and visual control of consistency); format: physicochemical
Procedure: Powder X-ray diffraction was performed with a PANalytical X'Pert PRO diffractometer equipped with a theta/theta coupled goniometer in transmission geometry, Cu-Kalpha1,2 radiation (wavelength 0.15419 nm) with a focusing mirror and a solid state PIXcel detector. Diffractograms were recorded at a tube voltage of 45 kV and a tube current of 40 mA, applying a stepsize of 0.013° 2-Theta with 40 s per step (255 channels) in the angular range of 2° to 40° 2-Theta at ambient conditions.
Example 2: Accelerated Stress Test at 40° C./75% RH With Solid Dispersions Comprising Amorphous Elagolix Sodium and at Least One Silicon-Based Inorganic Compound in a 1:1 Weight Ratio vs. Neat Elagolix Sodium
The physical stability against moisture and temperature stress has been tested for different solid dispersions comprising amorphous elagolix sodium and at least one silicon-based inorganic compound and for neat amorphous elagolix. For this purpose, the solid dispersions were stored open at accelerated stress conditions of 40° C. and 75% RH for 1, 3 and 6 weeks respectively. The physical stability has been investigated by means of powder X-ray diffraction and the consistency of the samples was visually controlled.

[2] = Behaviour of elagolix sodium upon moisture contact (hygroscopicity, deliquescence); format: physicochemical; details: no further conditions given
Source text: Said properties require special care and precautionary measures such as a controlled atmosphere during pharmaceutical processing, which renders manufacturing cumbersome and expensive. […] Such formulations may negatively influence patients' compliance, in particular for elderly people having troubles swallowing.
As used herein the term “deliquescent” means the property of a solid form of a compound to readily absorb moisture form the surrounding atmosphere until it deliquesces and forms a solution upon storage for 14 days at 40° C., atmospheric pressure and 75% relative humidity.

Question: Which “consistency / deliquescence during the stress test” value ([1]; accelerated stress conditions of 40° C. and 75% RH, up to 6 weeks) does the source give for COc1cccc(-c2c(C)n(Cc3c(F)cccc3C(F)(F)F)c(=O)n(C[C@H](NCCCC(=O)O)c3ccccc3)c2=O)c1F [elagolix Na, 4-[[(1R)-2-[5-(2-fluoro-3-methoxyphenyl)-3-[[2-fluoro-6-(trifluoromethyl)phenyl]methyl]-3,6-dihydro-4-methyl-2,6-dioxo-1(2H)-pyrimidinyl]-1-phenylethyl]amino]butanoic acid] here?
Answer: deliquesced fairly quickly

Question: And the Initial sample ([1]; solid state and consistency before storage, PXRD and visual control)?
Answer: amorphous solid

Question: And the “1 week at 40° C./75% RH” value ([1]; stored open, 1 week, 40° C., 75% RH, PXRD and visual control)?
Answer: deliquescence

Question: What about the “hygroscopicity / deliquescence upon moisture contact” value ([2]; listed as elagolix sodium) of the same compound?
Answer: highly hygroscopic

Question: What about the “hygroscopicity / deliquescence upon moisture contact” value ([2]; listed as neat amorphous elagolix sodium) of the same compound?
Answer: deliquesces fairly quickly
